Results published in patent US20260062422A1 (Halda Therapeutics OpCo, Inc., priority 2022, published 2026).

Tests used:
VCaP cells = assay: Cellular growth inhibition assay for VCaP cells, CellTiter-Glo; assay type: cell-based, human; conditions: 72 hours treatment, CellTiter-Glo 2.0
Summary of the method: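 GI50 values come from four-parameter curve fits of luminescence data normalized to a zero baseline. Compound, in medium with 0.5% DMSO, was added one day after plating and left for 72 h before CellTiter-Glo 2.0 addition.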

T47D cells = assay: Cellular growth inhibition assay for T47D cells, CellTiter-Glo; assay type: cell-based, human; conditions: 72 hours treatment, CellTiter-Glo 2.0 cell viability
Summary of the method: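 Growth inhibition as GI50, fitted with four parameters to CellTiter-Glo luminescence after 72 h of compound exposure (0.5% DMSO). Cells were T47D, grown in insulin-supplemented (0.2 units/mL) DMEM with 10% FBS and treated one day post-seeding.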

[1] = system: T-Rex 293 cell line SC3 cells having increased expression of androgen receptor protein due to exposure to doxycycline; assay: Cellular growth inhibition, T-Rex 293 SC3 cells with doxycycline (androgen receptor induced), CellTiter-Glo; assay type: cell-based; conditions: T-Rex 293 SC3 cells with 10 ng/mL doxycycline (increased androgen receptor expression)
Summary of the method: (§1)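 SC3 is a T-Rex 293 clone stably transfected with wild-type androgen receptor in pcDNA4/TO, inducible by 10 ng/mL doxycycline. Cells were grown in phenol red-free DMEM with 10% charcoal-dextran FBS, with or without doxycycline, dosed 24 h after seeding (0.5% DMSO) for 72 h. Viability was read by CellTiter-Glo 2.0 luminescence and GI50 obtained from four-parameter fits.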

[2] = system: T-Rex 293 cell line SC3 cells lacking increased expression of androgen receptor protein; assay: Cellular growth inhibition, T-Rex 293 SC3 cells without doxycycline, CellTiter-Glo; assay type: cell-based; conditions: T-Rex 293 SC3 cells not exposed to doxycycline, CellTiter-Glo 2.0
Summary of the method: as §1

| Compound | GI50 (VCaP cells; Homo sapiens, VCaP, 72 h) | GI50 (T47D cells; Homo sapiens, T47D, 72 h) | GI50 (VCaP cells) | GI50 (T47D cells) | GI50 ([1]; 72 h) | GI50 ([2]; 72 h) | GI50 ([1]; 72 hours) | GI50 ([2]; 72 hours) |
| --- | --- | --- | --- | --- | --- | --- | --- | --- |
| CCNC(=O)C[C@@H]1N=C(c2ccc(CN3CC4CN(c5ncc(C(=O)N[C@H]6C(C)(C)[C@H](Cc7ccc(C#N)c(Cl)c7)C6(C)C)cn5)CC4C3)cc2)c2c(sc(C)c2C)-n2c(C)nnc21 (stereo partly drawn) [Compound I-94] | < 500 nM | 500 to 1500 nM | – | – | < 500 nM | 500 to 1500 nM | – | – |
| Cc1sc2c(c1C)C(c1ccc(CCCN3CC4(C3)CN(c3ncc(C(=O)N[C@H]5C(C)(C)[C@H](Oc6ccc(C#N)c(Cl)c6)C5(C)C)cn3)C4)cc1)=N[C@@H](C)c1nnc(C)n1-2 [Compound I-348] | < 500 nM | < 500 nM | – | – | < 500 nM | 1500 to 3000 nM | – | – |
| Cc1sc2c(c1C)C(c1ccc(N3C4CC(=O)CC3CN(c3ncc(C(=O)N[C@H]5C(C)(C)[C@H](Oc6ccc(C#N)c(Cl)c6)C5(C)C)cn3)C4)cc1)=NC(Cc1ncco1)c1nnc(C)n1-2 (stereo partly drawn) [Compound I-654] | < 500 nM | < 500 nM | – | – | – | – | < 500 nM | < 500 nM |
| Cc1sc2c(c1C)C(c1ccc(C(=O)N3CCC[C@H](C(=O)c4ncc(C(=O)N[C@H]5C(C)(C)[C@H](Oc6ccc(C#N)c(Cl)c6)C5(C)C)cn4)C3)cc1)=N[C@@H](Cc1ncco1)c1nnc(C)n1-2 [Compound I-345] | > 3000 nM | 1500 to 3000 nM | – | – | > 3000 nM | > 3000 nM | – | – |
| Cc1sc2c(c1C)C(c1ccc(N3CC[C@@H](CNc4ncc(C(=O)N[C@H]5C(C)(C)[C@H](Oc6ccc(C#N)c(Cl)c6)C5(C)C)cn4)C3)cc1)=NC(Cc1ncco1)c1nnc(C)n1-2 (stereo partly drawn) [Compound I-648] | < 500 nM | < 500 nM | – | – | < 500 nM | < 500 nM | – | – |
| Cc1sc2c(c1C)C(c1ccc(CCN3CC[C@]4(C3)CN(c3ncc(C(=O)N[C@H]5C(C)(C)[C@H](Oc6ccc(C#N)c(Cl)c6)C5(C)C)cn3)CC(F)(F)C4)cc1)=N[C@@H](Cc1ncco1)c1nnc(C)n1-2 [Compound I-424] | < 500 nM | < 500 nM | – | – | < 500 nM | > 3000 nM | – | – |
| Cc1sc2c(c1C)C(c1ccc(C#C[C@H]3C[C@@]4(CCCN(c5ncc(C(=O)N[C@H]6C(C)(C)[C@H](Oc7ccc(C#N)c(Cl)c7)C6(C)C)cn5)C4)C3)cc1)=N[C@@H](C)c1nnc(C)n1-2 [Compound I-378] | < 500 nM | > 3000 nM | – | – | < 500 nM | > 3000 nM | – | – |
| Cc1sc2c(c1C)C(c1ccc(CC3CCN(c4ncc(C(=O)N[C@H]5C(C)(C)[C@H](Oc6ccc(C#N)c(Cl)c6)C5(C)C)cn4)CC3)cc1)=NC1(CC1)c1nnc(C)n1-2 [Compound I-555] | < 500 nM | > 3000 nM | – | – | < 500 nM | 500 to 1500 nM | – | – |
| Cc1sc2c(c1C)C(c1ccc(C3CC(C4CCN(c5ncc(C(=O)N[C@H]6C(C)(C)[C@H](Oc7ccc(C#N)c(Cl)c7)C6(C)C)cn5)CC4)C3)cc1)=NC(C)c1nnc(C)n1-2 (stereo partly drawn) [Compound I-466] | – | – | > 3000 nM | < 500 nM | – | – | < 500 nM | > 3000 nM |
| Cc1sc2c(c1C)C(c1ccc(O[C@H]3CC[C@@]4(CCN(c5ncc(C(=O)N[C@H]6C(C)(C)[C@H](Oc7ccc(C#N)c(Cl)c7)C6(C)C)cn5)C4)CC3)cc1)=N[C@@H](Cc1ncco1)c1nnc(C)n1-2 [Compound I-179] | < 500 nM | 500 to 1500 nM | – | – | < 500 nM | < 500 nM | – | – |

The next lines start with results.

| GI50 (VCaP cells; Homo sapiens, VCaP, 72 h) | GI50 (T47D cells; Homo sapiens, T47D, 72 h) | GI50 (VCaP cells) | GI50 (T47D cells) | Compound | GI50 ([1]; 72 h) | GI50 ([2]; 72 h) | GI50 ([1]; 72 hours) | GI50 ([2]; 72 hours) |
| --- | --- | --- | --- | --- | --- | --- | --- | --- |
| < 500 nM | > 3000 nM | – | – | Cc1sc2c(c1C)C(c1ccc(-c3cc(OC4CCN(c5ncc(C(=O)N[C@H]6C(C)(C)[C@H](Oc7ccc(C#N)c(Cl)c7)C6(C)C)cn5)CC4)cs3)cc1)=N[C@@H](Cc1ncco1)c1nnc(C)n1-2 [Compound I-443] | < 500 nM | > 3000 nM | – | – |
| < 500 nM | 500 to 1500 nM | – | – | Cc1sc2c(c1C)C(c1ccc(O[C@H]3CC[C@]4(CCN(c5ncc(C(=O)N[C@H]6C(C)(C)[C@H](Oc7ccc(C#N)c(Cl)c7)C6(C)C)cn5)C4)C3)cc1)=N[C@@H](Cc1ncco1)c1nnc(C)n1-2 [Compound I-175] | < 500 nM | < 500 nM | – | – |
| < 500 nM | > 3000 nM | – | – | Cc1sc2c(c1C)C(c1ccc(CC3CC4(CCCN(c5ncc(C(=O)N[C@H]6C(C)(C)[C@H](Oc7ccc(C#N)c(Cl)c7)C6(C)C)cn5)C4)C3)cc1)=N[C@@H](C)c1nnc(C)n1-2 [Compound I-380] | < 500 nM | > 3000 nM | – | – |
| < 500 nM | < 500 nM | – | – | Cc1sc2c(c1C)C(c1ccc(N3CCC[C@H](C(=O)N4CCC[C@@H](c5ncc(C(=O)N[C@H]6C(C)(C)[C@H](Oc7ccc(C#N)c(Cl)c7)C6(C)C)cn5)C4)C3)cc1)=N[C@@H](Cc1ncco1)c1nnc(C)n1-2 [Compound I-337] | < 500 nM | 500 to 1500 nM | – | – |
| < 500 nM | < 500 nM | – | – | Cc1sc2c(c1C)C(c1ccc(OC3CC4(CCN(c5ncc(C(=O)N[C@H]6C(C)(C)[C@H](Oc7ccc(C#N)c(Cl)c7)C6(C)C)cn5)CC4)C3)cc1F)=N[C@@H](Cc1ncco1)c1nnc(C)n1-2 [Compound I-457, N-[3-(3-chloro-4-cyano-phenoxy)-2,2,4,4-tetramethyl-cyclobutyl]-2-[2-[3-fluoro-4-[(9S)-4,5,13-trimethyl-9-(oxazol-2-ylmethyl)-3-thia-1,8,11,12-tetrazatricyclo[8.3.0.02,6]trideca-2(6),4,7,10,12-pentaen-7-yl]phenoxy]-7-azaspiro [3.5]nonan-7-yl]pyrimidine-5-carboxamide] | < 500 nM | < 500 nM | – | – |
| < 500 nM | < 500 nM | – | – | Cc1sc2c(c1C)C(c1ccc(N3C[C@@]4(F)CN(c5ncc(C(=O)N[C@H]6C(C)(C)[C@H](Oc7ccc(C#N)c(Cl)c7)C6(C)C)cn5)C[C@@]4(F)C3)cc1)=N[C@@H](C)c1nnc(C)n1-2 [Compound I-587] | < 500 nM | > 3000 nM | – | – |
| > 3000 nM | > 3000 nM | – | – | Cc1sc2c(c1C)C(c1ccc(C(=O)N3CCC[C@@H](C(=O)c4ncc(C(=O)N[C@H]5C(C)(C)[C@H](Oc6ccc(C#N)c(Cl)c6)C5(C)C)cn4)C3)cc1)=N[C@H](Cc1ncco1)c1nnc(C)n1-2 [Compound I-364] | < 500 nM | > 3000 nM | – | – |
| < 500 nM | < 500 nM | – | – | Cc1sc2c(c1C)C(c1ccc(OC[C@H]3C[C@@]4(CCCN(c5ncc(C(=O)N[C@H]6C(C)(C)[C@H](Oc7ccc(C#N)c(Cl)c7)C6(C)C)cn5)C4)C3)cc1)=N[C@@H](Cc1ncco1)c1nnc(C)n1-2 [Compound I-234] | < 500 nM | 500 to 1500 nM | – | – |
| 500 to 1500 nM | < 500 nM | – | – | Cc1sc2c(c1C)C(c1ccc(OC[C@H]3C[C@]4(CCCN(c5ncc(C(=O)N[C@H]6C(C)(C)[C@H](Oc7ccc(C#N)c(Cl)c7)C6(C)C)cn5)C4)C3)cc1)=N[C@@H](Cc1ncco1)c1nnc(C)n1-2 [Compound I-233] | < 500 nM | 1500 to 3000 nM | – | – |
| < 500 nM | < 500 nM | – | – | Cc1sc2c(c1C)C(c1ccc(O[C@@H]3COC4(C3)CN(c3ncc(C(=O)N[C@H]5C(C)(C)[C@H](Oc6ccc(C#N)c(Cl)c6)C5(C)C)cn3)C4)cc1)=N[C@@H](Cc1ncco1)c1nnc(C)n1-2 [Compound I-182] | < 500 nM | < 500 nM | – | – |
| < 500 nM | 500 to 1500 nM | – | – | Cc1sc2c(c1C)C(c1ccc(OC3CC4(C3)CC3(CCN(c5ncc(C(=O)N[C@H]6C(C)(C)[C@H](Oc7ccc(C#N)c(Cl)c7)C6(C)C)cn5)CC3)C4)cc1)=N[C@@H](C)c1nnc(C)n1-2 [Compound I-411] | < 500 nM | > 3000 nM | – | – |
